Measurements taken from patent US7713559B2, “Amorphous water-soluble calcium citrate salts and method of making and using same” (Kraft Foods Global Brands LLC, priority 2004, dated 2010).
Blank lines part the entries; values can stand above or below the compound they belong to.

Assays:
[1] = pH and initial solution appearance of powders added to water at 1 percent; assay type: physicochemical; settings: powder added to water at a level of 1 percent
Description: Powders prepared according to the present invention, as described above, were added to water at a level of 1 percent to measure pH and assess initial solution appearance. The crystalline commercial 3:2 mole ratio TCC reference material was included for comparison.

[2] = shelf life testing of calcium-fortified RTD beverage; assay type: physicochemical; settings: CRYSTAL LIGHT RTD lemon beverage
Description: Fortified RTD beverages were formulated with several forms of calcium citrate. The visual appearance, flavor, and stability of the products were evaluated over a seven-month period by an experienced panel. Identical samples of each fortified beverage were prepared for shelf life testing under both ambient (22° C.) and refrigerated (4° C.) storage conditions.
The freeze dried amorphous 2:2 mole ratio calcium citrate salt (17% calcium) of Example 1 was successfully used to fortify a ready-to-drink sugar-free lemon-flavored beverage (CRYSTAL LIGHT®) with 350 mg calcium per eight fluid ounce serving (“excellent source of calcium” level). To formulate the calcium-fortified powdered mix, eight fluid ounces of commercial CRYSTAL LIGHT® RTD beverage mix was mixed thoroughly with 2 g of the freeze dried amorphous 2:2 mole ratio calcium citrate salt.

[3] = dissolution in water and freedom from haze and sediment at 350 mg calcium per eight fluid ounce serving; assay type: physicochemical
From the text: The solution remained completely free of haze and sediment for at least two days of storage at room temperature. Similar or even better results were obtained from the salts prepared having calcium:citrate mole ratios lower than 2:2, even when dissolved in water at higher concentrations.
These powders, in spite of the sediment produced, would provide very acceptable performance in many, if not most, food applications, including instant beverage mixes and acidified RTD beverages.
This behavior might also be acceptable in some situations (i.e., opaque instant beverage mixes), but appears to represent a practical upper limit for applications that require high levels of soluble calcium and/or require a sediment-free transparent appearance.
As an alternative to freeze drying, an amorphous 2:2 mole ratio calcium citrate salt, using the same ingredients as in Example 1, was also successfully produced via spray drying (i.e., pilot scale drying using standard operating conditions and procedures). In this case, chilled calcium hydroxide and citric acid solutions were combined and rapidly spray dried before solidification or sediment formation could occur. […] In a large scale commercial process, the citric acid and calcium hydroxide (or other suitable reagents) would be beneficially combined just prior to spray drying to limit the potential for solidification or sediment formation.
One batch of the chilled citric acid solution was poured into a mix tank jacketed with cooling water and one batch of calcium hydroxide suspension was added with stirring. […] The clear solution was immediately pumped into a semi-works scale spray dryer, fitted with an atomizing nozzle, at a flow rate of about 0.5 kg per minute. Additional batches of citric acid solution and calcium hydroxide suspension were similarly added to the mix tank as needed to prevent complete emptying. A sample of fine white powder was collected from the spray dryer after ten minutes of operation. […] After a further fifteen minutes, the cooling water was shut off from the jacketed mix tank. […] In less than one hour, the atomizing nozzle and pipe between the mix tank and the spray dryer became plugged with an accumulated deposit of insoluble crystalline calcium citrate.

[4] = calcium-fortified powdered instant drink mixes reconstituted with cold water
Description: One sample of the amorphous salt (2.0 g) was combined with 17.0 g sweetened Cherry Kool-Aid® powdered instant drink mix in a 400 ml beaker. The powdered drink mix contained sugar, fructose, citric acid, calcium phosphate (not a significant source of calcium), artificial flavor, artificial colors, and ascorbic acid. Another sample of the amorphous salt (2.0 g) was combined with 2.0 g artificially-sweetened Lemon CRYSTAL LIGHT® powdered instant drink mix and placed in a 400 ml beaker. The powdered drink mix contained citric acid, potassium citrate, maltodextrin, aspartame, magnesium oxide, natural flavor, lemon juice solids, acesulfame potassium, artificial colors, and BHA.

[5] = room temperature; cited from earlier work
[6] = freeze dried powders of Example 1 or commercial salts, room temperature water, 350 mg calcium per eight fluid ounce serving

Compound: O=C([O-])CC(O)(CC(=O)O)C(=O)O.O=C([O-])CC(O)(CC(=O)O)C(=O)O.[Ca+2] [1:2, monocalcium citrate]
Initial Solution Appearance [1]: No haze; no sediment
Solution pH [1]: 3.4

Compound: O=C([O-])CC(O)(CC(=O)O)C(=O)[O-].[Ca+2] [2:2, dicalcium citrate]
sediment in fortified RTD beverage during shelf life evaluation ([2]; 350 mg calcium per eight fluid ounces, seven-month period, room temperature (22° C.) and refrigeration (4° C.)): remained sediment free
Initial Solution Appearance [1]: No haze; no sediment
Solution pH [1]: 4.1
time solution remained completely free of haze and sediment ([3]; freeze dried powder, 2 g in 240 ml water, storage at room temperature): at least two
dissolution behaviour on addition to water [3, 6]: instantly dissolving clear solution
dissolution in cold water ([3]; larger spray dryer, sample collected after ten minutes of operation, feed cooled, 350 mg calcium per eight fluid ounces): rapidly dissolved in cold water without haze or precipitate
dissolution in water ([3]; larger spray dryer, sample collected after thirty minutes, cooling water shut off): did not dissolve completely in water
dissolution behaviour on addition to water ([3]; spray dried salt of Example 2 (pilot scale), 2 g in 240 ml room temperature water, 350 mg calcium per eight ounce serving): instantly dissolving clear solution
time solution remained completely free of sediment ([3]; spray dried salt of Example 2 (pilot scale), room temperature): at least three
dissolution when water was added to fortified drink mix ([4]; 2.0 g salt with Cherry Kool-Aid or Lemon CRYSTAL LIGHT mix, eight fluid ounces cold water, no stirring): dissolved immediately
time reconstituted beverage remained free of sediment ([4]; Cherry Kool-Aid and Lemon CRYSTAL LIGHT mixes, 350 mg calcium per serving): at least 24 hours

sediment in fortified RTD beverage upon admixture of the ingredients ([2]; amounts to provide the same level of calcium): noticeable sediment formation
dissolution behaviour on addition to water [3, 6]: did not completely disperse in water
dissolution of the sediment ([4]; with rapid stirring or with the passage of time): did not dissolve
Compound: TCC tetrahydrate [3:2*, reference compound]
haze and sediment produced at first, on or soon after addition to water ([3]; 350 mg calcium per eight fluid ounce serving): immediately produced a large amount of a coarse, gritty white sediment
solubility in water [5]: less than 0.1%
soluble calcium provided per fluid ounce of water [5]: about 6 mg
sediment formation in reconstituted beverage ([4]; 1.7 g in place of the amorphous salt, Cherry Kool-Aid and Lemon CRYSTAL LIGHT mixes): large amounts of coarse gritty sediment were formed immediately

Compound: sesqui-calcium citrate [1.5:2]
Initial Solution Appearance [1]: No haze; no sediment
Solution pH [1]: 3.8
